Results taken from patent US20250171452A1 (Viscient Bio, Inc., priority 2022, published 2025).
pIC50: −log10 of the molar value. Read-outs that look alike come from different tables or passages of the source.

Columns and labels:
IDO2 = IDO2 (Homo sapiens (Human), UniProt Q6ZQW0); test: Cellular IDO2 assay, doxycycline and 5-methoxy-L-tryptophan medium, colorimetric; assay type: cell-based
Description: IDO2 inhibition at the cellular level was evaluated in vitro using the following procedure.
Using cell culture medium, the volume of the suspension was adjusted to achieve a cell concentration of 20,000 cells/well (90 uL/well).
5-Methoxy-L-tryptophan powder was dissolved in the culture medium to a concentration of 10 mM, then filtered and sterilized with a 0.22 um filter. Doxycycline powder was dissolved in ddH2O to a concentration of 100 ug/ml, then filtered and sterilized with a 0.22 um filter. 5-aminolevulinic acid powder was dissolved in ddH2O to a concentration of 400 mM, then filtered and sterilized with a 0.22 um filter. A 2× Assay medium was then by diluting the doxycycline (from 100 ug/ml to 2 ug/ml) and 5-Methoxy-L-tryptophan (from 10 mM to 5 mM) in culture medium. The 5-aminolevulinic acid solution was also added to the solution (diluting the concentration from 400 mM to 2 mM) to get a 2× working solution.
After incubation, plates and reagents were allows to equilibrate to room temperature. […] Trichloroacetic acid powder was dissolved in ddH2O to prepare 6.1N trichloroacetic acid. […] The plates were incubated at 55° C. for 40 minutes, and then centrifuged for 10 min at 2500 rpm. […] Measurement of the signal was performed using Envision at 480 nm. Throughout the foregoing process, care was taken to prevent exposure to light.

[1] = molecular target: Indoleamine 2,3-dioxygenase 1 (IDO1) (Homo sapiens (Human), UniProt P14902); test: Cellular IDO1 assay: kynurenine production in IFN-γ-stimulated HeLa cells, colorimetric
Indoleamine 2,3-dioxygenase 1 (IDO1), sequence (P14902 whole entry): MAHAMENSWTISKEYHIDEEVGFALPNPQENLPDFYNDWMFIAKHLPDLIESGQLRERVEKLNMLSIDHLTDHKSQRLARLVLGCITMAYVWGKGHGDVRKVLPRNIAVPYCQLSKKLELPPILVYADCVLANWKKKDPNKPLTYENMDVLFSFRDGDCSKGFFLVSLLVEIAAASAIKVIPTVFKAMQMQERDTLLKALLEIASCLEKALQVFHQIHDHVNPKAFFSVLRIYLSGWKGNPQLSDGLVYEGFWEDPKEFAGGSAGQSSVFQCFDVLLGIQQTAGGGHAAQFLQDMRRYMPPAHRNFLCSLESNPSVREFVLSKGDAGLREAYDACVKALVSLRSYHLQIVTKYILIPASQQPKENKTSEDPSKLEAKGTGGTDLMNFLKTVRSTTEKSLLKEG

[2] = cellular level, 72 h incubation, signal at 480 nm

IDO2, sequence (Q6ZQW0 whole entry, species assumed): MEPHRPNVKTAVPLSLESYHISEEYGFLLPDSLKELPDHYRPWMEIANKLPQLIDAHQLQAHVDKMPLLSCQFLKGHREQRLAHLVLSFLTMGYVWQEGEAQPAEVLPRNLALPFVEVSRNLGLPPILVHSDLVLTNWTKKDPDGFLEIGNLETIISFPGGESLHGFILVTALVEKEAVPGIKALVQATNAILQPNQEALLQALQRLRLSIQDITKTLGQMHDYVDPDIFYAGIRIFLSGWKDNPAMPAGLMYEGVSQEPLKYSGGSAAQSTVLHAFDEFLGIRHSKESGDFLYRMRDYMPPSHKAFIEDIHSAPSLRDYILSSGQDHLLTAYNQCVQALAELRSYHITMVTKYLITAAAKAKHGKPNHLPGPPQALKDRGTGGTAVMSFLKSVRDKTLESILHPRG

| Structure (SMILES) | pIC50 (IDO2; [2]) | pIC50 [1] | pIC50 (IDO2) |
| --- | --- | --- | --- |
| Cc1ccc2c(=O)n3c(nc2c1)C(=O)c1cc([N+](=O)[O-])ccc1-3 [Compound 1, 3-Methyl-8-nitroindolo[2,1-b]quinazoline-6,12-dione] | 6.30 to 7.30 | > 7.30 |  |
| O=C1c2cc([N+](=O)[O-])ccc2-n2c1nc1cc(F)ccc1c2=O [Compound 2, 3-Fluoro-8-nitroindolo[2,1-b]quinazoline-6,12-dione] | > 7.30 | > 7.30 |  |
| N#Cc1ccc2c(c1)C(=O)c1nc3cc(Cl)ccc3c(=O)n1-2 [Compound 3, 3-Chloro-6,12-dioxo-6,12-dihydroindolo[2,1-b]quinazoline-8-carbonitrile] | > 7.30 | > 7.30 |  |
| O=C(O)c1ccc2c(c1)C(=O)c1nc3cc(Cl)ccc3c(=O)n1-2 [Compound 4, 3-Chloro-6,12-dioxo-6,12-dihydroindolo[2,1-b]quinazoline-8-carboxylic Acid] | < 6.30 | < 6.30 |  |
| Nc1ccc2c(c1)C(=O)c1nc3cc(Cl)ccc3c(=O)n1-2 [Compound 5, 8-Amino-3-chloroindolo[2,1-b]quinazoline-6,12-dione] | 6.30 to 7.30 | < 6.30 |  |
| COC(=O)c1ccc2c(c1)C(=O)c1nc3cc(Cl)ccc3c(=O)n1-2 [Compound 6, Methyl 3-chloro-6,12-dioxo-6,12-dihydroindolo[2,1-b]quinazoline-8-carboxylate] | 6.30 to 7.30 | 6.30 to 7.30 |  |
| CC(=O)Nc1ccc2c(c1)C(=O)c1nc3cc(Cl)ccc3c(=O)n1-2 [Compound 7, N-(3-Chloro-6,12-dioxo-6,12-dihydroindolo[2,1-b]quinazolin-8-yl)acetamide] | 6.30 to 7.30 | 6.30 to 7.30 |  |
| NC(=O)c1ccc2c(c1)C(=O)c1nc3cc(Cl)ccc3c(=O)n1-2 [Compound 8, 3-Chloro-6,12-dioxo-6,12-dihydroindolo[2,1-b]quinazoline-8-carboxamide] | 6.30 to 7.30 | 6.30 to 7.30 |  |
| NCCNC(=O)c1ccc2c(c1)C(=O)c1nc3cc(Cl)ccc3c(=O)n1-2 [Compound 10, N-(2-Aminoethyl)-3-chloro-6,12-dioxo-6,12-dihydroindolo[2,1-b]quinazoline-8-carboxamide] | 6.30 to 7.30 | < 6.30 |  |
| O=C1c2cc([N+](=O)[O-])ccc2-n2c1nc1cc(F)cc(F)c1c2=O [Compound 11, 1,3-Difluoro-8-nitroindolo[2,1-b]quinazoline-6,12-dione] |  | 6.30 to 7.30 | > 7.30 |
| N#Cc1ccc2c(c1)C(=O)c1nc3cc(F)ccc3c(=O)n1-2 [Compound 12, 3-Fluoro-6,12-dioxo-6,12-dihydroindolo[2,1-b]quinazoline-8-carbonitrile] | > 7.30 | > 7.30 |  |
| NS(=O)(=O)NCCNC(=O)c1ccc2c(c1)C(=O)c1nc3cc(Cl)ccc3c(=O)n1-2 [Compound 13, 3-Chloro-6,12-dioxo-N-(2-(sulfamoylamino)ethyl)-6,12-dihydroindolo[2,1-b]quinazoline-8-carboxamide] | < 6.30 | < 6.30 |  |
| CS(=O)(=O)c1ccc2c(c1)C(=O)c1nc3cc(F)ccc3c(=O)n1-2 [Compound 14, 3-Fluoro-8-(methylsulfonyl)indolo[2,1-b]quinazoline-6,12-dione] | > 7.30 | 6.30 to 7.30 |  |
| CN1CCN(Cc2ccc3c(=O)n4c(nc3c2)C(=O)c2cc(F)ccc2-4)CC1 [Compound 15, 8-Fluoro-3-((4-methylpiperazin-1-yl)methyl)indolo[2,1-b]quinazoline-6,12-dione] | 6.30 to 7.30 | 6.30 to 7.30 |  |
| Nc1ccc2c(=O)n3c(nc2c1)C(=O)c1cc([N+](=O)[O-])ccc1-3 [Compound 16, 3-Amino-8-nitroindolo[2,1-b]quinazoline-6,12-dione] | > 7.30 | 6.30 to 7.30 |  |
| CC(C)(C)OC(=O)Nc1ccc2c(=O)n3c(nc2c1)C(=O)c1cc([N+](=O)[O-])ccc1-3 [Compound 17, tert-Butyl (8-nitro-6,12-dioxo-6,12-dihydroindolo[2,1-b]quinazolin-3-yl)carbamate] | > 7.30 | 6.30 to 7.30 |  |
| O=C1c2cc(Br)ccc2-n2c1nc1cc(F)ccc1c2=O [Compound 18, 8-Bromo-3-fluoroindolo[2,1-b]quinazoline-6,12-dione] | 6.30 to 7.30 | < 6.30 |  |
| NCCNC(=O)c1ccc2c(c1)C(=O)c1nc3cc(Cl)cc(Cl)c3c(=O)n1-2 [Compound 19, N-(2-Aminoethyl)-1,3-dichloro-6,12-dioxo-6,12-dihydroindolo[2,1-b]quinazoline-8-carboxamide] | < 6.30 | < 6.30 |  |
| CNC(=O)c1ccc2c(c1)C(=O)c1nc3cc(Cl)cc(Cl)c3c(=O)n1-2 [Compound 20, 1,3-Dichloro-N-methyl-6,12-dioxo-6,12-dihydroindolo[2,1-b]quinazoline-8-carboxamide] | 6.30 to 7.30 | 6.30 to 7.30 |  |
| O=[N+]([O-])c1ccc2c(c1)C(O)C1Nc3cc(F)ccc3CN21 (stereo not drawn) [Compound 21, 3-Fluoro-8-nitro-5H,5aH,6H,12H-indolo[2,1-b]quinazolin-6-ol] | > 7.30 | > 7.30 |  |
| O=C(O)c1ccc2c(c1)C(=O)c1nc3cc(Cl)cc(Cl)c3c(=O)n1-2 [Compound 22, 1,3-Dichloro-6,12-dioxoindolo[2,1-b]quinazoline-8-carboxylic Acid] | < 6.30 | < 6.30 |  |

| Structure (SMILES) | pIC50 (IDO2; [2]) | pIC50 [1] | pIC50 (IDO2) |
| --- | --- | --- | --- |
| NC(=O)c1ccc2c(c1)C(=O)c1nc3cc(Cl)cc(Cl)c3c(=O)n1-2 [Compound 23, 1,3-Dichloro-6,12-dioxoindolo[2,1-b]quinazoline-8-carboxamide] | 6.30 to 7.30 | 6.30 to 7.30 |  |
| CN(C)C(=O)c1ccc2c(c1)C(=O)c1nc3cc(Cl)cc(Cl)c3c(=O)n1-2 [Compound 24, 1,3-Dichloro-N,N-dimethyl-6,12-dioxo-6,12-dihydroindolo[2,1-b]quinazoline-8-carboxamide] | 6.30 to 7.30 | 6.30 to 7.30 |  |
| O=C1c2cc(C(=O)N3CCNCC3)ccc2-n2c1nc1cc(Cl)cc(Cl)c1c2=O [Compound 25, 1,3-dichloro-8-(piperazine-1-carbonyl)indolo[2,1-b]quinazoline-6,12-dione] | 6.30 to 7.30 | 6.30 to 7.30 |  |
| CC(C)(C)OC(=O)N1CCN(C(=O)c2ccc3c(c2)C(=O)c2nc4cc(Cl)cc(Cl)c4c(=O)n2-3)CC1 [Compound 26, tert-Butyl 4-(1,3-dichloro-6,12-dioxo-6,12-dihydroindolo[2,1-b]quinazoline-8-carbonyl)piperazine-1-carboxylate] | 6.30 to 7.30 | < 6.30 |  |
| NS(=O)(=O)c1ccc2c(c1)C(=O)c1nc3cc(F)ccc3c(=O)n1-2 [Compound 27] | > 7.30 | 6.30 to 7.30 |  |
| O=C1c2cc(SCc3ccccc3)ccc2-n2c1nc1cc(F)ccc1c2=O [Compound 28] | > 7.30 | 6.30 to 7.30 |  |
| NS(=O)(=O)NCCNC(=O)c1ccc2c(c1)C(=O)c1nc3cc(Cl)cc(Cl)c3c(=O)n1-2 [Compound 29, 1,3-Dichloro-6,12-dioxo-N-(2-(sulfamoylamino)ethyl)-6,12-dihydroindolo[2,1-b]quinazoline-8-carboxamide] | < 6.30 | < 6.30 |  |
| Cc1c(F)ccc2c(=O)n3c(nc12)C(=O)c1cc([N+](=O)[O-])ccc1-3 [Compound 30, 3-Fluoro-4-methyl-8-nitroindolo[2,1-b]quinazoline-6,12-dione] | > 7.30 | 6.30 to 7.30 |  |
| N#Cc1ccc2c(c1)C(O)C1Nc3cc(F)ccc3C(=O)N21 (stereo not drawn) [Compound 31, 3-Fluoro-6-hydroxy-12-oxo-5,5a,6,12-tetrahydroindolo[2,1-b]quinazoline-8-carbonitrile] | > 7.30 | 6.30 to 7.30 |  |
| O=C1c2c(F)cc(F)cc2NC2C(O)c3cc([N+](=O)[O-])ccc3N12 (stereo not drawn) [Compound 32, 1,3-Difluoro-6-hydroxy-8-nitro-5a,6-dihydroindolo[2,1-b]quinazolin-12(5H)-one] | 6.30 to 7.30 | 6.30 to 7.30 |  |
| O=C1c2cc(S(=O)(=O)Cc3ccccc3)ccc2-n2c1nc1cc(F)ccc1c2=O [Compound 33, 8-(Benzylsulfonyl)-3-fluoroindolo[2,1-b]quinazoline-6,12-dione] | > 7.30 | > 7.30 |  |
| O=c1c2c(F)cc(F)cc2nc2n1-c1ccc([N+](=O)[O-])cc1C2 [Compound 34, 1,3-Difluoro-8-nitroindolo[2,1-b]quinazolin-12(6H)-one] | 6.30 to 7.30 | < 6.30 |  |
| O=C1c2cc([N+](=O)[O-])ccc2-n2c1nc1c(Br)c(F)ccc1c2=O [Compound 35] | > 7.30 | 6.30 to 7.30 |  |
| O=C1c2cc([N+](=O)[O-])ccc2-n2c1nc1c(Cl)cccc1c2=O [Compound 36, 4-Chloro-8-nitroindolo[2,1-b]quinazoline-6,12-dione] | > 7.30 | 6.30 to 7.30 |  |
| O=C1c2cc([N+](=O)[O-])ccc2-n2c1nc1cccc(F)c1c2=O [Compound 37, 1-Fluoro-8-nitroindolo[2,1-b]quinazoline-6,12-dione] |  | > 7.30 | > 7.30 |
| Cc1cccc2nc3n(c(=O)c12)-c1ccc([N+](=O)[O-])cc1C3=O [Compound 38, 1-Methyl-8-nitroindolo[2,1-b]quinazoline-6,12-dione] | > 7.30 | > 7.30 |  |
| O=c1c2c(Cl)cccc2[nH]c2cc3cc([N+](=O)[O-])ccc3n12 [Compound 39, 1-Chloro-8-nitroindolo[2,1-b]quinazolin-12(5H)-one] | > 7.30 | 6.30 to 7.30 |  |
| Cc1ccc(F)c2c(=O)n3c(nc12)C(=O)c1cc([N+](=O)[O-])ccc1-3 [Compound 40] | 6.30 to 7.30 | 6.30 to 7.30 |  |
| O=C1c2cc([N+](=O)[O-])ccc2-n2c1nc1c(F)cccc1c2=O [Compound 41, 4-Fluoro-8-nitroindolo[2,1-b]quinazoline-6,12-dione] | > 7.30 | 6.30 to 7.30 |  |
| Cc1cccc2c(=O)n3c(nc12)C(=O)c1cc([N+](=O)[O-])ccc1-3 [Compound 42, 4-Methyl-8-nitroindolo[2,1-b]quinazoline-6,12-dione] | > 7.30 | > 7.30 |  |
| O=C1c2cc([N+](=O)[O-])ccc2-n2c1nc1c(Br)cccc1c2=O [Compound 43, 4-Bromo-8-nitroindolo[2,1-b]quinazoline-6,12-dione] | > 7.30 | 6.30 to 7.30 |  |
